Laboratory results from paper PMC10934261, “Designing Potent Anti-Cancer Agents: Synthesis and Molecular Docking Studies of Thieno[2,3-d][1,2,4]triazolo[1,5-a]pyrimidine Derivatives” (Molecules, 2024).

Experiments:
[1] = tested on: human breast MCF-7 cancer cell line; assay: In vitro cytotoxic screening (MTT assay), MCF-7; assay type: cell-based; conditions: for Percentage cytotoxicity on MCF-7: average ± standard deviation; for IC50: Homo sapiens, MCF7, MCF-7, 48 h incubation, mean of three values, read-out: IC50 (Mean ± SD) MCF-7
Procedure: (§1) Using human breast MCF-7, colorectal HCT-116, and prostate PC-3 cancer cell lines, preliminary antiproliferative effectiveness of cyclopenta[4,5]thieno[2,3-d][1,2,4]triazolo[1,5-a]pyrimidin-9(6H)-ones 4–16 was established in vitro through MTT assay at different concentrations (100, 50, 25 and 12.5 μM) (Figure 2).
(§2) The cell lines were obtained from Karolinska Center, Department of Oncology and Pathology, Karolinska Institute and Hospital, Stockholm, Sweden. as follows: human breast MCF-7, colorectal HCT-116 and prostate PC-3 cancer cell lines and human skin normal BJ-1 cell line. Exponentially, cells were cultured at a concentration of 10^4 cells/well for 24 h, afterwards fresh medium containing different concentrations of the tested samples was added. Serial two-fold dilution of the tested samples were added using a multichannel pipette. Moreover, all cells were cultivated at 37 °C, 5% CO2 and 95% humidity. Also, incubation of control cells occurred at 37 °C. However, after incubation for 24 h different concentrations of samples (100, 50, 25 and 12.5 µM) were added and the incubation was continued for 48 h, then crystal violet solution 1% was added to each well for 0.5 h to examine the presence of viable cells. After rinsing the wells using water until stain free, 30% glacial acetic acid was added to all wells with shaking the plates on a Microplate reader (TECAN, Inc.) to measure the absorbance at a wavelength of 490 nm. The cytotoxicity was estimated by IC50 in μM, which is the concentration that inhibits 50% of growth of cancer cells. […]
(§3) 1.1. In vitro cytotoxic screening
(§4) The cell lines were obtained from Karolinska Center, Department of Oncology and Pathology, Karolinska Institute and Hospital, Stockholm, Sweden. as follows: human breast MCF-7, colorectal HCT-116 and prostate PC-3 cancer cell lines and human skin normal BJ-1 cell line. Exponentially, cells were placed in 10^4 cells/ well for 24 h, and then add fresh medium which containing different concentration of the tested sample. Serial two-fold dilution of the tested sample were added using a multichannel pipette. Moreover, all cells were cultivated at 37 °C, 5% CO2 and 95% humidity. Also, incubation of control cells occurred at 37 °C. However, after incubation for 24 h different concentrations of sample (100, 50, 25 and 12.5 µM) were added and continued the incubation for 48 h, then, add the crystal violet solution 1% to each well for 0.5 h to examine viable cells. Rinse the wells using water until no stain. After that, add 30% glacial acetic acid to all wells with shaking plates on Microplate reader (TECAN, Inc.) to measure the absorbance, using a test wavelength of 490 nm. Besides, compare the treated samples with the control cell. The cytotoxicity was estimated by IC50 in (μ M), the concentration that inhibits 50% of growth of cancer cell. […]
(§5) The molecular docking simulation of the promising in vitro screened cyclopenta[4,5]thieno[2,3-d][1,2,4]triazolo[1,5-a]pyrimidin-9(6H)-ones 10b and 10e against EGFR and PI3K was done using the Molecular Operating Environment software (MOE-Dock) version 2014.0901. The co-crystallized structures of EGFR and PI3K kinases complexed with their native ligands, erlotinib and quinolone LXX, were downloaded from the protein data bank (PDB codes: 1M17 and 3L54, respectively). All minimizations were performed using MOE until an RMSD gradient of 0.05 kcal∙mol−1Å−1 with MMFF94x force field and the partial charges were automatically calculated. Preparation of the enzyme structures was done for molecular docking using Protonate 3D protocol with the default options in MOE. London dG scoring function and Triangle Matcher placement method were used in the docking protocol. Initially, the original ligands were re-docked into the active binding site of EGFR and PI3K kinases to assess the root-mean-square deviation values. Then, the docking studies of the newly targeted […]

[2] = tested on: human prostate PC-3 cancer cell line; assay: In vitro cytotoxic screening (MTT assay), PC-3; assay type: cell-based; conditions: for Percentage cytotoxicity on PC-3: average ± standard deviation; for IC50: Homo sapiens, PC-3, 48 h incubation, mean of three values, read-out: IC50 (Mean ± SD) PC-3
Procedure: as §1, §2, §3, §4, §5

[3] = tested on: human skin normal cell line (BJ-1); assay: Cytotoxicity on normal cells (MTT assay), BJ-1; assay type: cell-based; conditions: for Percentage cytotoxicity on normal BJ1 human skin fibroblast cell line: average ± standard deviation; for IC50: Homo sapiens, BJ-1 normal skin cells, 48 h incubation, mean of three values, read-out: IC50 (Mean ± SD) BJ-1
Procedure: It can therefore be concluded that 10b presents a safer cytotoxicity profile than 10e.
as §2, with “However, after incubation for 24 h different concentrations of samples (100, 50, 25 and 12.5 µM) were added and the incubation was continued for 48 h, then crystal violet solution 1% was added to each well for 0.5 h to examine the presence of viable cells.” left out
as §3
The cell lines were obtained from Karolinska Center, Department of Oncology and Pathology, Karolinska Institute and Hospital, Stockholm, Sweden. as follows: human breast MCF-7, colorectal HCT-116 and prostate PC-3 cancer cell lines and human skin normal BJ-1 cell line. Exponentially, cells were placed in 10^4 cells/ well for 24 h, and then add fresh medium which containing different concentration of the tested sample. Serial two-fold dilution of the tested sample were added using a multichannel pipette. Moreover, all cells were cultivated at 37 °C, 5% CO2 and 95% humidity. Also, incubation of control cells occurred at 37 °C. […]
Rinse the wells using water until no stain. After that, add 30% glacial acetic acid to all wells with shaking plates on Microplate reader (TECAN, Inc.) to measure the absorbance, using a test wavelength of 490 nm. Besides, compare the treated samples with the control cell. The cytotoxicity was estimated by IC50 in (μ M), the concentration that inhibits 50% of growth of cancer cell. […]
as §5, with “targeted compounds were estimated within the ATP-binding sites after elimination of the co-crystallized” for “targeted”
Percentage cytotoxicity of 100 µM of the compounds on human tumor cell lines*

[4] = tested on: human colorectal HCT-116 cancer cell line; assay: In vitro cytotoxic screening (MTT assay), HCT-116; assay type: cell-based; conditions: for Percentage cytotoxicity on HCT-116: average ± standard deviation; for IC50: Homo sapiens, HCT-116, 48 h incubation, mean of three values, read-out: IC50 (Mean ± SD) HCT-116
Procedure: as §1, §2, §3, §4, §5

| Compound | Percentage cytotoxicity on MCF-7 ([1]; 12.5 µM) [%] | Percentage cytotoxicity on MCF-7 ([1]; 25 µM) [%] | Percentage cytotoxicity on MCF-7 ([1]; 50 µM) [%] | Percentage cytotoxicity on MCF-7 ([1]; 100 µM) [%] | IC50 [1] [µM] | Percentage cytotoxicity on PC-3 ([2]; 12.5 µM) [%] | Percentage cytotoxicity on PC-3 ([2]; 25 µM) [%] | Percentage cytotoxicity on PC-3 ([2]; 50 µM) [%] | Percentage cytotoxicity on PC-3 ([2]; 100 µM) [%] | Percentage cytotoxicity on normal BJ1 human skin fibroblast cell line ([3]; 12.5 µM) [%] | Percentage cytotoxicity on normal BJ1 human skin fibroblast cell line ([3]; 25 µM) [%] | Percentage cytotoxicity on normal BJ1 human skin fibroblast cell line ([3]; 50 µM) [%] | Percentage cytotoxicity on normal BJ1 human skin fibroblast cell line ([3]; 100 µM) [%] | IC50 [3] [µM] | Percentage cytotoxicity on HCT-116 ([4]; 12.5 µM) [%] | Percentage cytotoxicity on HCT-116 ([4]; 25 µM) [%] | Percentage cytotoxicity on HCT-116 ([4]; 50 µM) [%] | Percentage cytotoxicity on HCT-116 ([4]; 100 µM) [%] | melting point [°C] | IC50 [2] [µM] | further results |
| --- | --- | --- | --- | --- | --- | --- | --- | --- | --- | --- | --- | --- | --- | --- | --- | --- | --- | --- | --- | --- | --- |
| O=c1c2c3c(sc2nc2[nH]c(-c4ccc(Br)cc4)nn12)CCC3 [Compound 10b, 2-(4-Bromophenyl)-7,8-dihydro-3H-cyclopenta[4,5]thieno[2,3-d][1,2,4]triazolo[1,5-a]pyrimidin-9(6H)-one] | 30.3±4.3 | 64.4±2.2 | 80.8±2.8 | 86.4±10 | 19.4 ± 0.22 | 10.9±5.2 | 18.4±1.7 | 22.1±0.6 | 41.4±0.7 | 16.8±8.3 | 34.2±7.4 | 34.6±3.8 | 39.3±7.7 | 222 ± 30 | 6.2±0.9 | 14.3±1.7 | 15.0±2.5 | 24.4±6.6 | 268 to 270 | – | – |
| O=c1c2c3c(sc2nc2[nH]c(-c4c5ccccc5cc5ccccc45)nn12)CCC3 [Compound 10e, 2-(Anthracen-9-yl)-3,6,7,8-tetrahydro-9H-cyclopenta[4,5]thieno[2,3-d][1,2,4]triazolo[1,5-a]pyrimidin-9-one] | 37.9±6.7 | 85.6±3.6 | 97.9±1.2 | 98.3±0.5 | 14.5 ± 0.3 | 29.6±3.8 | 56.6±1.3 | 64.2±1.1 | 75.9±1.3 | 13.8±2.1 | 44.8±1.9 | 58.1±3.2 | 83.9±1.2 | 34.8 ± 4.5 | 0.0±0.005 | 19.0±4.9 | 34.9±2.8 | 86.7±4.4 | 101 to 103 | 25.2 ± 0.4 | IC50 [4]: 57 ± 0.61 µM |
| CC(=O)OC[C@H]1O[C@@H](n2cnn3c(=O)c4c5c(sc4nc23)CCC5)[C@H](OC(C)=O)[C@@H](OC(C)=O)[C@@H]1OC(C)=O [Compound 14, 3-(2,3,4,6-Tetra-O-acetyl-β-d-glocopyranosyl)-7,8-dihydro-3H-cyclopenta-[4,5]thieno-[2,3-d][1,2,4]triazolo[1,5-a]pyrimidin-9(6H)-one] | 0.0±0.005 | 0.0±0.005 | 0.0±0.005 | 29.2±0.8 | – | 0.0±0.005 | 0.0±0.005 | 0.0±0.005 | 9.5±1.9 | – | – | – | – | – | 0.0±0.005 | 0.0±0.005 | 0.0±0.005 | 15.7±2.9 | > 300 | – | – |
| COc1cccc2c1C(=O)c1c(O)c3c(c(O)c1C2=O)C[C@@](O)(C(=O)CO)C[C@@H]3O[C@H]1C[C@H](N)[C@H](O)[C@H](C)O1 [Doxorubicin, reference compound] | – | – | – | – | 40 ± 3.9 | – | – | – | – | – | – | – | – | 49.2 ± 1.08 | – | – | – | – | – | 6.8 ± 1.2 | IC50 [4]: 20.5 ± 2.1 µM |
